Structures are written as SMILES.

This experiment concerns Staphylococcus aureus (g+) LMG 8064. In words: poison plate assay (bacteria). The format is cell-based. Conditions: LMG8064, 120 h, ppm total active ingredient, Tryptose Agar, 27° C., 70% relative humidity, growth evaluated after five days, ratio % (I) + % (II-a), read-out: MIC-values (minimum inhibitory concentration) in ppm. An excerpt:
When the Synergy Index is greater than 1.0, antagonism is indicated. When the SI is equal to 1.0, additivity is indicated.

For the molecule `C=CCOC(Cn1ccnc1)c1ccc(Cl)cc1Cl` (stereo not shown) [100 + 0], the MIC turned out to be 25 µg/mL.

These data come from patent US8921403B2, “Combinations of imazalil and hydroxypyridones” (Janssen Pharmaceutica, NV, priority 2007, dated 2014).
